Results taken from ChEMBL document CHEMBL3351890, “Azapropellanes with anti-influenza a virus activity” (ACS Med Chem Lett, 2014).
Active and inactive are the calls of the source. The calls are words filed in the database; no cut-off is given here.

Key:
[1] = test system: Matrix protein 2 (Influenza A virus), P06821 [V27A]; assay: Inhibition of influenza A virus wild type M2 proton channel V27A mutant expressed in Xenopus oocytes at 100 uM by two-electrode voltage clamp analysis; type: cell-based
[2] = test system: Matrix protein 2 (Influenza A virus), P06821 [withheld]; assay: Inhibition of influenza A virus wild type M2 proton channel S31N mutant expressed in Xenopus oocytes at 100 uM by two-electrode voltage clamp analysis; type: cell-based

Row | SMILES | inhibition [1] | inhibition [2]
1 | CC1CC23CC(C)CC2(C1)CN(C(=N)N)C3 (centres undefined) | inactive | inactive
2 | C=C1CC23CNCC2(C1)CC(=C)C3 (centres undefined) | inactive | inactive
3 | CC1CC23CNCC2(C1)CC(C)C3 (centres undefined) | inactive | inactive
4 | C1=CC[C@]23CCCC[C@@]2(C1)CNC3 | inactive | inactive
5 | C=C1CC23CCCC2(CNC3)C1 (centres undefined) | inactive | inactive
6 | C=C1CC23CC=CCC2(CNC3)C1 (centres undefined) | inactive | inactive
7 | C1CC23CCCC2(C1)CNC3 (centres undefined) | inactive | inactive
